Experimental data from patent US11078462B2, “Perivascular stromal cells from primate pluripotent stem cells” (ReCyte Therapeutics, Inc., priority 2014, dated 2021).
Counter-ions that a name gives are not always drawn.

System: HUVEC+017-PC-M co-cultures
Assay: Kit co-culture assay to study angiogenesis in vitro (tube formation on MATRIGEL)
Format: cell-based, human
Protocol: A kit has been developed to provide a unique, robust co-culture assay to study angiogenesis in vitro. In this model system, we utilize a unique perivascular stromal cell line (017-PC-M) that when co-cultured with human umbilical vein endothelial cells (HUVEC) results in the rapid formation of large angiogenic networks with long-term stability of 4-6 days without the need for additional growth factors and complex media supplements.
VASCULIFE® assay media: VASCULIFE® basal media plus 10 mM L-glutamine (final concentration)
Assay Protocol: • 1. Four days (Day −4) prior to assay, HUVECs should be thawed and seeded at 3.5×10^4 cells per cm^2 into a 150 cm^2 tissue culture flask containing VASCULIFE® growth media. Incubate cells at 37° C. and 5% CO2. Exchange full volume of media every 1-2 days. • 2. Two days (Day −2) prior to assay, PC-M cells should be thawed and seeded at 10×10^4 cells per cm^2 into a 150 cm^2 tissue culture flask containing VASCULIFE® growth media. Incubate cells at 37° C. and 5% CO2. Exchange full volume of media every 1-2 days. • 3. At Day 0, prepare 96-well plate with MATRIGEL® coating of 50 μL per well. Let plate warm for at least 1 hour prior to seeding cells. • 4. Prepare assay solution: dilute L-glutamine into VASCULIFE® medium. • 5. On Day 0, harvest both HUVECs and PC-M cells. Recommended: Use 5-7.5 mL ACCUTASE® treatment for 3-5 minutes to detach cells, then quench Accutase® with an equivolume of Vasculife® growth media before pelleting cells. • 6. Prepare VASCULIFE® assay media (500 μL per each triplicate condition). • 7. Pellet cells at 250-350 rpm for 5 minutes at room temperature. • 8. Decant media and re-suspend into 1 mL of VASCULIFE® assay media. • 9. Measure cell concentration and viability:
• 10. Mix cells at a ratio of 3:1 HUVECs: 017-PC-M cells and seed at a final density of 37,500 cells per well. For one set of triplicates, mix approximately 85,000 HUVECs with 28,000 017-PC-M cells. • 11. Allow co-culture to adhere at 37° C. for 3-4 hours. • 12. […]

Cc1ccc(C(=O)Nc2ccc(S(=O)(=O)O)c3cc(S(=O)(=O)O)cc(S(=O)(=O)O)c23)cc1NC(=O)c1cccc(NC(=O)Nc2cccc(C(=O)Nc3cc(C(=O)Nc4ccc(S(=O)(=O)O)c5cc(S(=O)(=O)O)cc(S(=O)(=O)O)c45)ccc3C)c2)c1 [Suramin, suramin hexasodium salt]
reduce tube formation (Addition of 50 μM Suramin): > 90%

VEGF
formation of tubes after addition of VEGF to the assay media (VEGF concentrations ≤2.5 ng/mL or ≥10 ng/mL, monocultures and/or co-cultures): may inhibit formation of tubes

basic FGF: basic fibroblast growth factor added to the assay media
tube formation after addition of basic FGF to the assay media (concentrations ≥10 ng/mL, monocultures of HUVECs, of 017-PC-M cells and/or co-cultures): little to no tube formation
